# Where two headings read alike, the source gives them in different places.
# Tests used:
# BTK = BTK (Homo sapiens (Human), UniProt Q06187)
# Lyn = Lyn (Homo sapiens (Human), UniProt P07948); assay: biochemical
# DoHH2 = assay: CellTiter-Glo proliferation/viability assay; format: cell-based, human; conditions: Homo sapiens, DOHH-2; 48 hrs; read-out: DoHH2 EC50
# Src = Src (Homo sapiens (Human), UniProt P12931); assay: biochemical
# Ramos = assay: CellTiter-Glo proliferation/viability assay; format: cell-based, human; conditions: Homo sapiens, Ramos, read-out: Ramos EC50
# Chain of Src (P12931 whole entry, looked up): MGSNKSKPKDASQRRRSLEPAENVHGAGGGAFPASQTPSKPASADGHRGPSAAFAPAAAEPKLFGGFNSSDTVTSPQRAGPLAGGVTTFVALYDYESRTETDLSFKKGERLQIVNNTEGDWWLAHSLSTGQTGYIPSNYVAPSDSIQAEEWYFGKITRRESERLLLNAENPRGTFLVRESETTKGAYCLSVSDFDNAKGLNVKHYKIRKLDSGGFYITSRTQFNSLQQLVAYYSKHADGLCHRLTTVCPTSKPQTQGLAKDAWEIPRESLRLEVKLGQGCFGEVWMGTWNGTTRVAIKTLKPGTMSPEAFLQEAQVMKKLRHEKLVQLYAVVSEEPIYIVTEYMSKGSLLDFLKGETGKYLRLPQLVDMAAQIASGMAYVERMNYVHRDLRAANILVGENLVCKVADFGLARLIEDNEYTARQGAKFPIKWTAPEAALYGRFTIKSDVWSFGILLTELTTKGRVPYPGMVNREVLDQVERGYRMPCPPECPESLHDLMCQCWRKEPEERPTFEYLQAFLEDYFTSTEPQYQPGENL
# Chain of Lyn (P07948 whole entry): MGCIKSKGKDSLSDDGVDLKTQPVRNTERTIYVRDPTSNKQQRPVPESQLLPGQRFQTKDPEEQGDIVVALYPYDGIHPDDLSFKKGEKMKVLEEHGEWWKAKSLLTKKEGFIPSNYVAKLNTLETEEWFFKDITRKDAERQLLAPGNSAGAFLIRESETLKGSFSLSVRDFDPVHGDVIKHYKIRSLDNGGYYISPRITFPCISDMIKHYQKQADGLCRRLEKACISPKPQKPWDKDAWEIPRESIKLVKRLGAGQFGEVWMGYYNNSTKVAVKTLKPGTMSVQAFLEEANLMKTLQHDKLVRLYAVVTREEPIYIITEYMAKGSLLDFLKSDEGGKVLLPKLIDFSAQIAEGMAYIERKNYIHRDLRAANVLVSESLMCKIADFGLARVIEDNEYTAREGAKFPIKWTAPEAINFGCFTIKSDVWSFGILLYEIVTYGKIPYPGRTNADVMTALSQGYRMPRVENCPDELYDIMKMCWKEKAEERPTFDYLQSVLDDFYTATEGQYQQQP
# Chain of BTK (Q06187 whole entry): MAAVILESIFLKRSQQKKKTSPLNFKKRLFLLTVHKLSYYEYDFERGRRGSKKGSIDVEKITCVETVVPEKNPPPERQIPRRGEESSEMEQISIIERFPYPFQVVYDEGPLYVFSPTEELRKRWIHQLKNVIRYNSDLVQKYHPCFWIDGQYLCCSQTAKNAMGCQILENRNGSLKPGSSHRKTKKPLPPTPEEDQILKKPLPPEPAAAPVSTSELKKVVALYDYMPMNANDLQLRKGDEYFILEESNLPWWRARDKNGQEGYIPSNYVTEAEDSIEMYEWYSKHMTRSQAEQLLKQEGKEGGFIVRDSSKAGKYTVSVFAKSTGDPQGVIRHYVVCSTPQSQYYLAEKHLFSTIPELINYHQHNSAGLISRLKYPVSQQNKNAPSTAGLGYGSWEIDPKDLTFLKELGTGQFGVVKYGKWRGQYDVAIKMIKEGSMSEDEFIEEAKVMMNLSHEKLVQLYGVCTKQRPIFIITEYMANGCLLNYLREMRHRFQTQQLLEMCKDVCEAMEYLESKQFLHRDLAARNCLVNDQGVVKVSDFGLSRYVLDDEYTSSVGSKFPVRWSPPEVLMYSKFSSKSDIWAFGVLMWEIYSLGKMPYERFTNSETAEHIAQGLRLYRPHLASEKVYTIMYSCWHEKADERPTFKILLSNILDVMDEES
Structure (SMILES),IC50 (BTK) [µM],IC50 (Lyn) [µM],IC50 (Src) [µM],EC50 (Ramos; 48 hrs) [µM],IC50 (Lyn; Lyn IC50) [µM],EC50 (Ramos; 48 h) [µM],EC50 (DoHH2) [µM],IC50 (BTK; read-out: BTK IC50) [µM]
"CCn1c(=O)c(-c2ccccc2)cc2cnc(Nc3ccnc(OC)n3)cc21 [Compound 62, 1-Ethyl-7-(2-methoxy-pyrimidin-4-ylamino)-3-phenyl-1H-[1,6]naphthyridin-2-one]",1 to 5,–,0.1 to 1,–,1 to 5,1 to 10,< 1,–
"CCn1c(=O)c(-c2ccccc2)cc2cnc(Nc3ccc(N4CCOCC4)cn3)cc21 [Compound 44, 1-Ethyl-7-(5-morpholin-4-yl-pyridin-2-ylamino)-3-phenyl-1H-[1,6]naphthyridin-2-one]",–,0.1 to 1,0.1 to 1,1 to 10,–,–,< 1,> 5
"CCn1c(=O)c(-c2ccccc2)cc2cnc(Nc3ccc(OCCN(C)C)cn3)cc21 [Compound 48, 7-[5-(2-Dimethylamino-ethoxy)-pyridin-2-ylamino]-1-ethyl-3-phenyl-1H-[1,6]naphthyridin-2-one]",1 to 5,0.1 to 1,1 to 5,> 10,–,–,1 to 10,–
"CCn1c(=O)c(-c2cc([S+](C)[O-])ccc2F)cc2cnc(Nc3ccc(N(C)C4CCN(C)CC4)cn3)cc21 (centres unmarked) [Compound 117, 1-ethyl-3-(2-fluoro-5-(methylsulfinyl)phenyl)-7-((5-(methyl(1-methylpiperidin-4-yl)amino)pyridin-2-yl)amino)-1,6-naphthyridin-2(1H)-one]",0.1 to 1,< 0.1,0.1 to 1,–,–,> 10,1 to 10,–
"CCn1c(=O)c(C2CC2)cc2cnc(Nc3ccc(C)cn3)cc21 [Compound 30, 3-Cyclopropyl-1-ethyl-7-(5-methyl-pyridin-2-ylamino)-1H-[1,6]naphthaayridin-2-one]",–,1 to 5,0.1 to 1,–,–,1 to 10,1 to 10,> 5
"CCn1c(=O)c(-c2ccccc2)cc2cnc(Nc3ccc(N(C)C)cn3)cc21 [Compound 64, 7-(5-Dimethylamino-pyridin-2-ylamino)-1-ethyl-3-phenyl-1H-[1,6]naphthyridin-2-one]",1 to 5,0.1 to 1,0.1 to 1,> 10,–,–,< 1,–

# Now from value to compound, other results behind:
IC50 (BTK) [µM],IC50 (Lyn) [µM],IC50 (Src) [µM],EC50 (Ramos; 48 hrs) [µM],IC50 (Lyn; Lyn IC50) [µM],EC50 (Ramos; 48 h) [µM],Structure (SMILES),EC50 (DoHH2) [µM],IC50 (BTK; read-out: BTK IC50) [µM]
1 to 5,1 to 5,1 to 5,> 10,–,–,"COCCn1c(=O)c(C(C)C)cc2cnc(Nc3ccc(F)cn3)cc21 [Compound 128, 7-((5-fluoropyridin-2-yl)amino)-3-isopropyl-1-(2-methoxyethyl)-1,6-naphthyridin-2(1H)-one]",1 to 10,–
0.1 to 1,1 to 5,0.1 to 1,> 10,–,–,"CCN(CC)CCOc1ccc(Nc2cc3c(cn2)cc(-c2ccccc2)c(=O)n3-c2cccnc2)nc1 [Compound 84, 7-[5-(2-Diethylamino-ethoxy)-pyridin-2-ylamino]-3-phenyl-1-pyridin-3-yl-1H-[1,6]naphthyridin-2-one]",1 to 10,–
< 0.1,–,< 0.1,–,< 0.1,1 to 10,"CCN(CC)CCOc1ccc(Nc2cc3c(cn2)cc(-c2c(Cl)cccc2Cl)c(=O)n3C2CCOC2)nc1 (single isomer, unassigned) [Compound 145, (S or R)-3-(2,6-dichlorophenyl)-7-((5-(2-(diethylamino)ethoxy)pyridin-2-yl)amino)-1-(tetrahydrofuran-3-yl)-1,6-naphthyridin-2(1H)-one]",< 1,–
0.1 to 1,0.1 to 1,0.1 to 1,–,–,> 10,"O=c1c(-c2c(F)cccc2F)cc2cnc(Nc3ccc(F)cn3)cc2n1CCO [Compound 125, 3-(2,6-difluorophenyl)-7-((5-fluoropyridin-2-yl)amino)-1-(2-hydroxyethyl)-1,6-naphthyridin-2(1H)-one]",< 1,–
